In ChEMBL document CHEMBL1667794, “Synthesis of bi-substrate state mimics of dihydropteroate synthase as potential inhibitors and molecular probes” (Bioorg Med Chem, 2011):

Columns and labels:
[1] = target: T1, Dihydropteroate synthase (Bacillus anthracis) (UniProt Q81VW8); test: Inhibition of Bacillus anthracis DHPS at 200 uM
T1 sequence (whole entry): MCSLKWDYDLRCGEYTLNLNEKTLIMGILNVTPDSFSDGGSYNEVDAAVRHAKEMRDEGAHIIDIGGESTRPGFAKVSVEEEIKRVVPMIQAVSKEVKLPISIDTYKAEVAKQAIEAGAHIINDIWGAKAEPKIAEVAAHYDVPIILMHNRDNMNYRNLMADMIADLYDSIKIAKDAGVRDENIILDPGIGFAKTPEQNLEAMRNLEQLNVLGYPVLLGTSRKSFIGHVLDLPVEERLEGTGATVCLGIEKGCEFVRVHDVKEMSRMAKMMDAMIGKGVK

[2] = target: T1, Dihydropteroate synthase (Bacillus anthracis); test: Inhibition of Bacillus anthracis DHPS at 200 uM after 10 mins

Compound | inhibition [1] | inhibition [2]
Nc1nc2ncc(N(CCP(=O)(O)O)Cc3ccc(C(=O)O)cc3)cc2c(=O)[nH]1 | 16.3% | 30.5%
Nc1nc2c(c(=O)[nH]1)CC(N(CCP(=O)(O)O)Cc1ccc(C(=O)O)cc1)CN2 (stereo not drawn) | 3.6% | 5.7%
Nc1nc2ncc(N(CCCP(=O)(O)O)Cc3ccc(C(=O)O)cc3)cc2c(=O)[nH]1 | 32.9% | 44.3%
Nc1nc2c(c(=O)[nH]1)C[C@@H](N(CCCP(=O)(O)O)Cc1ccc(C(=O)O)cc1)CN2 | 3.9% | 6.3%
